# According to patent US20200352931A1, “OXALAMIDES AS MODULATORS OF INDOLEAMINE 2,3-DIOXYGENASE” (PHENEX DISCOVERY VERWALTUNGS-GMBH, priority 2017, published 2020):
# Molecular target: T1, Indoleamine 2,3-Dioxygenase (IDO1) in SKOV-3 cells (Homo sapiens, UniProt P14902)
# T1 construct: endogenous in cells; host or cells: SKOV-3 (ATCC HTB-77), stimulated with 50 ng/ml interferon gamma
# Test: SKOV-3 cellular indoleamine 2,3-dioxygenase assay
# Conditions: 50 ng/ml Interferon gamma, 100 μM L-Tryptophan, 24 hours, N-Formylkynurenin fluorescence, read-out: cell based activity (IC50)
# Method: SKOV-3 Cellular Indoleamine 2,3-Dioxygenase Assay
# SKOV-3 cells were obtained from the American Type Culture Collection (ATCC® HTB-77™) and maintained in McCoy's medium (Pan Biotech) supplemented with 10% fetal bovine serum and 1% Penicilin/Streptomycin. Cells were kept at 37° C. in a humidified incubator with 5% CO2. For assay preparation, cells were seeded at a density of 2*10^5/m into black clear bottom 96 well plates in 100 μl medium/well supplemented with 50 ng/ml Interferon gamma (eBioscience, Thermo Fisher Scientific). After cells fully adhered to the plate, dilution series of compounds were added in medium containing additional L-Tryptophan to a final L-Tryptophan concentration of 100 μM. The cells were incubated for 24 hours. Detection of produced N-Formylkynurenin was performed by addition of 3-Methylpiperidine to a final concentration of 200 mM. The plates were sealed and heated to 65° C. for 20 minutes in a water bath. After cooling the fluorescence of each well was recorded with a Victor™ X4 (PerkinElmer) plate reader at an emission wavelength of 535 nm and excitation at 405 nm (Tomek et al.; Anal Bioanal Chem (2013) 405:2515-2524., Tomek et al.; Biochim Biophys Acta. 2015 September; 1850(9):1772-80).
# T1 sequence (P14902 whole entry): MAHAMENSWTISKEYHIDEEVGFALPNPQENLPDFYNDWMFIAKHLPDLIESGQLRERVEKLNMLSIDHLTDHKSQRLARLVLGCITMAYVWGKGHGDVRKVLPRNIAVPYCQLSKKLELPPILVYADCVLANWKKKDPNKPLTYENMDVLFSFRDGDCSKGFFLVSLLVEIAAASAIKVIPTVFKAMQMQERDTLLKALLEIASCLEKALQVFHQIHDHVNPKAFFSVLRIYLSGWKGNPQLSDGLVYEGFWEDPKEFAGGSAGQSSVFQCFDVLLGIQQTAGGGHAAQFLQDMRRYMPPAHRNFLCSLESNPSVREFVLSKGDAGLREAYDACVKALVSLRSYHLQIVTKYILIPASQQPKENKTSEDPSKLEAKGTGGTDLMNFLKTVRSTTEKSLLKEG
row,Compound,IC50 [nM]
1,"O=C(Nc1ccc(Cl)cc1)C(=O)N1CC[C@H](c2ccnc3ccc(F)cc23)[C@H](O)C1 (single isomer, unassigned) [10/1a]",100 to 1000
2,"O=C(Nc1ccc(Cl)cc1)C(=O)N1CC[C@@H](c2ccnc3ccc(F)cc23)[C@@H](O)C1 (single isomer, unassigned) [10/1b]",> 1000
3,"CO[C@@H]1CN(C(=O)C(=O)Nc2ccc(Cl)cc2)CC[C@H]1c1ccnc2ccc(F)cc12 (single isomer, unassigned) [10/2a]",< 100
4,"CO[C@H]1CN(C(=O)C(=O)Nc2ccc(Cl)cc2)CC[C@@H]1c1ccnc2ccc(F)cc12 (single isomer, unassigned) [10/2b]",< 100
5,"O=C(Nc1ccc(Cl)cc1)C(=O)N1CC[C@@H](c2ccnc3ccc(F)cc23)[C@H](O)C1 (single isomer, unassigned) [Example 10a, trans-N-(4-Chlorophenyl)-2-(4-(6-fluoroquinolin-4-yl)-3-hydroxypiperidin-1-yl)-2-oxoacetamide]",< 100
6,"O=C(Nc1ccc(Cl)cc1)C(=O)N1CC[C@@H](c2ccnc3ccc(F)cc23)[C@H](O)C1 (single isomer, unassigned) [Example 10b, trans-N-(4-Chlorophenyl)-2-(4-(6-fluoroquinolin-4-yl)-3-hydroxypiperidin-1-yl)-2-oxoacetamide]",< 100
7,O=C(Nc1ccc(Cl)cc1)C(=O)N1CCC(c2ccccc2)CC1 [1/1],< 100
8,O=C(Nc1ccc(Cl)cc1F)C(=O)N1CCC(c2ccnc3ccccc23)CC1 [1/2],< 100
9,O=C(Nc1ccc(Cl)cc1)C(=O)N1CCC(c2ccnc3ccccc23)CC1 [1/3],< 100
10,O=C(Nc1ccc(Cl)cc1F)C(=O)N1CCC(c2cc(C(F)(F)F)nc3ccccc23)CC1 [1/4],100 to 1000
11,O=C(Nc1ccc(Cl)cc1F)C(=O)N1CCC(c2ccnc3ccnn23)CC1 [1/5],100 to 1000
12,O=C(Nc1ccc(Cl)cc1F)C(=O)N1CCC(c2ccnc3ccc(F)cc23)CC1 [1/6],< 100
13,O=C(Nc1ccc(Cl)cc1F)C(=O)N1CCC(c2ccccc2)C1 (stereo not drawn) [1/7],> 1000
14,O=C(Nc1ccc(Cl)cn1)C(=O)N1CCCC(c2ccnc3ccccc23)CC1 (stereo not drawn) [1/8],< 100
15,O=C(Nc1ccc(Cl)cn1)C(=O)N1CCC(O)(c2ccnc3ccccc23)CC1 [1/9],> 1000
16,O=C(Nc1ccc(Cl)cn1)C(=O)N1C2CCC1CC(c1ccnc3ccccc13)C2 (stereo not drawn) [1/10],100 to 1000
17,CC1(C)CC(c2ccnc3ccccc23)CCN1C(=O)C(=O)Nc1ccc(Cl)cn1 (stereo not drawn) [1/11],< 100
18,O=C(Nc1ccc(Cl)cc1F)C(=O)N1CCC=C(c2ccnc3ccc(F)cc23)CC1 [1/12],< 100
19,N#Cc1ccc(NC(=O)C(=O)N2CCC(c3ccnc4ccc(F)cc34)CC2)cc1 [1/14],< 100
20,O=C(Nc1cccc(C(F)(F)F)c1)C(=O)N1CCC(c2ccnc3ccc(F)cc23)CC1 [1/15],100 to 1000
21,O=C(Nc1ccc(F)c(Cl)c1)C(=O)N1CCC(c2ccccc2)CC1 [1/16],> 1000
22,O=C(Nc1ccc(C(F)(F)F)cc1F)C(=O)N1CCC(c2ccnc3ccc(F)cc23)CC1 [1/17],< 100
23,O=C(Nc1ccc(Cl)c(F)c1)C(=O)N1CCC(c2ccnc3ccc(F)cc23)CC1 [1/18],< 100
24,O=C(Nc1cc(F)c(Cl)cc1F)C(=O)N1CCC(c2ccnc3ccc(F)cc23)CC1 [1/19],< 100
25,O=C(Nc1ccc(C(F)(F)F)c(Cl)c1)C(=O)N1CCC(c2ccnc3ccc(F)cc23)CC1 [1/20],> 1000

row,Compound,IC50 [nM]
1,O=C(Nc1ccc(C(F)(F)F)c(F)c1)C(=O)N1CCC(c2ccnc3ccc(F)cc23)CC1 [1/21],100 to 1000
2,O=C(Nc1ccc(C(F)F)cc1)C(=O)N1CCC(c2ccnc3ccc(F)cc23)CC1 [1/22],< 100
3,N#Cc1ccc(NC(=O)C(=O)N2CCC(c3ccnc4ccc(F)cc34)CC2)c(F)c1 [1/23],< 100
4,Cc1ccc(NC(=O)C(=O)N2CCC(c3ccnc4ccc(F)cc34)CC2)c(F)c1 [1/24],< 100
5,O=C(Nc1ccc(C(F)F)cc1F)C(=O)N1CCC(c2ccnc3ccc(F)cc23)CC1 [1/25],< 100
6,O=C(Nc1ccc(Br)cc1F)C(=O)N1CCC(c2ccnc3ccc(F)cc23)CC1 [1/26],< 100
7,O=C(Nc1ccc(Br)cc1)C(=O)N1CCC(c2ccnc3ccc(F)cc23)CC1 [1/27],< 100
8,O=C(Nc1ccc(F)cc1)C(=O)N1CCC(c2ccnc3ccc(F)cc23)CC1 [1/28],< 100
9,O=C(Nc1ncc(Cl)cc1F)C(=O)N1CCC(c2ccnc3ccc(F)cc23)CC1 [1/29],< 100
10,O=C(Nc1ccc(Cl)cc1)C(=O)N1CCC(c2ccnc3c(F)cc(F)cc23)CC1 [1/30],< 100
11,O=C(Nc1ccc(Cl)cc1)C(=O)N1CCC(c2ccnc3cc(F)ccc23)CC1 [1/31],< 100
12,Cc1cc(Cl)ccc1NC(=O)C(=O)N1CCC(c2ccnc3ccc(F)cc23)CC1 [1/32],100 to 1000
13,O=C(Nc1ccc(Cl)cn1)C(=O)N1CCC(c2cc(OC(F)F)nc3ccccc23)CC1 [1/33],> 1000
14,COc1cc(C2CCN(C(=O)C(=O)Nc3ccc(Cl)cn3)CC2)c2ccccc2n1 [1/34],> 1000
15,O=C(Nc1ccc(Cl)cn1)C(=O)N1CCC(F)(c2ccnc3ccccc23)CC1 [1/35],100 to 1000
16,O=C(Nc1ccc(CC(F)(F)F)cc1)C(=O)N1CCC(c2ccnc3ccc(F)cc23)CC1 [1/36],100 to 1000
17,O=C(Nc1ccc(OC(F)(F)F)cc1)C(=O)N1CCC(c2ccnc3ccc(F)cc23)CC1 [1/37],< 100
18,O=C(Nc1ccc(SC(F)(F)F)cc1)C(=O)N1CCC(c2ccnc3ccc(F)cc23)CC1 [1/38],< 100
19,O=C(Nc1ccc(OC(F)F)cc1)C(=O)N1CCC(c2ccnc3ccc(F)cc23)CC1 [1/39],< 100
20,O=C(Nc1ccc(OC(F)F)cc1F)C(=O)N1CCC(c2ccnc3ccc(F)cc23)CC1 [1/40],< 100
21,O=C(Nc1ccc(OCC(F)(F)F)cc1)C(=O)N1CCC(c2ccnc3ccc(F)cc23)CC1 [1/41],100 to 1000
22,CC(C)(O)c1ccc2nccc(C3CCN(C(=O)C(=O)Nc4ccc(Cl)cc4)CC3)c2c1 [1/42],> 1000
23,NC(=O)c1ccc2nccc(C3CCN(C(=O)C(=O)Nc4ccc(Cl)cc4)CC3)c2c1 [1/43],> 1000
24,N#Cc1ccc2nccc(C3CCN(C(=O)C(=O)Nc4ccc(Cl)cc4)CC3)c2c1 [1/44],100 to 1000
25,CC1(C)CN(C(=O)C(=O)Nc2ccc(Cl)cc2)CCC1c1ccnc2ccc(F)cc12 (stereo not drawn) [1/45],< 100

row,Compound,IC50 [nM]
1,O=C(Nc1ccc(Cl)cc1)C(=O)N1CCC(c2ccnc3ccc(F)cc23)C(F)(F)C1 (stereo not drawn) [1/46],< 100
2,O=C(Nc1ccc(Cl)cc1)C(=O)N1CCC(c2ccnc3ccc(Cl)cc23)CC1 [1/47],< 100
3,O=C(Nc1ccc(Cl)cc1)C(=O)N1CCC(c2ccnc3cc(Cl)ccc23)CC1 [1/48],< 100
4,O=C(NCc1ccc(Cl)cc1)C(=O)N1CCC(c2ccnc3ccc(F)cc23)CC1 [2/1],> 1000
5,O=C(NCc1ccc(Cl)o1)C(=O)N1CCC(c2ccnc3ccc(F)cc23)CC1 [2/2],> 1000
6,CN(C(=O)C(=O)N1CCC(c2ccnc3ccc(F)cc23)CC1)c1ccc(Cl)cn1 [2/3],> 1000
7,O=C(Nc1ccc(Cl)cn1)C(=O)N1CCC(c2ccnc(C(F)(F)F)c2Cl)CC1 [2/4],100 to 1000
8,O=C(Nc1ccc(Cl)cn1)C(=O)N1CCC(c2cccc(Cl)c2Cl)CC1 [2/5],100 to 1000
9,N#Cc1ccc(C2CCN(C(=O)C(=O)Nc3ccc(Cl)cn3)CC2)c2ccccc12 [2/6],100 to 1000
10,O=C(N[C@@H]1CCc2ccccc2C1)C(=O)N1CCC(c2ccnc3ccc(F)cc23)CC1 [5/1],> 1000
11,O=C(Nc1ccc(C(F)(F)F)cn1)C(=O)N1CCC(c2ccnc3ccc(F)cc23)CC1 [5/2],100 to 1000
12,Cc1nc(NC(=O)C(=O)N2CCC(c3ccnc4ccc(F)cc34)CC2)ccc1Cl [5/3],100 to 1000
13,O=C(Nc1ccc(-c2cnccn2)cn1)C(=O)N1CCC(c2ccnc3ccc(F)cc23)CC1 [5/4],100 to 1000
14,O=C(Nc1ccc(-c2cncnc2)cn1)C(=O)N1CCC(c2ccnc3ccc(F)cc23)CC1 [5/5],> 1000
15,Cc1nc(NC(=O)C(=O)N2CCC(c3ccnc4ccc(F)cc34)CC2)ccc1-c1cnn(C)c1 [5/6],> 1000
16,O=C(NC1Cc2ccccc2C1)C(=O)N1CCC(c2ccnc3ccc(F)cc23)CC1 [5/7],100 to 1000
17,NS(=O)(=O)c1ccc(NC(=O)C(=O)N2CCC(c3ccnc4ccc(F)cc34)CC2)cc1 [5/8],> 1000
18,NC(=O)c1ccc(NC(=O)C(=O)N2CCC(c3ccnc4ccc(F)cc34)CC2)cc1 [5/9],> 1000
19,CS(=O)(=O)c1ccc(NC(=O)C(=O)N2CCC(c3ccnc4ccc(F)cc34)CC2)cc1 [5/10],> 1000
20,O=C(Nc1ccc(C(F)(F)F)cn1)C(=O)N1CCC(c2ccccc2Cc2ccccc2)CC1 [6/1],> 1000
21,O=C(Nc1ccc(C(F)(F)F)cn1)C(=O)N1CCC(c2ccncc2-c2ccccc2)CC1 [6/2],> 1000
22,O=C(Nc1ccc(C(F)(F)F)cc1)C(=O)N1CCC(c2ccnc3ccc(F)cc23)CC1 [7/1],< 100
23,O=C(Nc1csc(Cl)c1)C(=O)N1CCC(c2ccnc3ccc(F)cc23)CC1 [7/2],< 100
24,O=C(N[C@@H]1CCc2ccccc21)C(=O)N1CCC(c2ccnc3ccc(F)cc23)CC1 [8/1],> 1000
25,O=C(N[C@H]1CCc2ccccc21)C(=O)N1CCC(c2ccnc3ccc(F)cc23)CC1 [8/2],> 1000
